From US20250339642A1, “CATHETERS” (ConvaTec Limited, priority 2023, published 2025)

Key:
Assay type in all cases: cell-based
[1] = system: Enterococcus faecalis NCTC 12201; experiment: In vitro direct inoculation method, bacterial levels over 5 minutes
Description: (§1) An in vitro direct inoculation method was used to assess the antimicrobial activity of sulfanilamide in an intermittent urinary catheter scenario against […] Escherichia coli NCIMB 14067 and […] Enterococcus faecalis NCTC 12201; two microorganisms associated with urinary tract infections. Sulfanilamide concentrations of 0.1% and 0.01% were tested and bacterial levels monitored over a period of 5 minutes.
(§2) Representative colonies of the challenge microorganisms, from an 18-24 hour challenge culture plate, were dispersed in MRD to obtain an optical density (OD540nm) equivalent to approximately 1×10^8 CFU/mL. This was diluted to obtain a working concentration of 1×10^6 CFU/mL. A quantitative count was performed to confirm the inoculum level.
(§3) The challenge organism was prepared in MRD to a concentration of approximately 1×10^6 CFU/mL. This suspension was added in a 1 mL volume to 9 mL of sample (n=3 per sample, n=2 per control) in a sterile 30 mL universal and pipetted up and down to mix. Following each testing period, 5 seconds, 30 seconds, 1 minute, 2 minutes and 5 minutes, 100 μL of the test solution was transferred to 0.9 mL and 9.9 mL volumes of DENB (1:10 and 1:100 dilutions respectively). The most appropriate dilutions were inoculated (100 μL) onto duplicate pre-dried (tryptone soy agar) TSA plates and the inoculum spread using separate sterile L-shaped spreaders (for 10^−1 and 10^−2 dilutions, 0.5 mL were placed onto duplicate plates). The TSA plates were allowed to dry before being inverted and incubated at 35±3° C. for at least 48 hours. Following the incubation period, the number of bacterial colonies were counted on the most appropriate dilution for each dressing type i.e. between 25-250 CFU/plate.
(§4) The samples tested were: 0.1% sulfanilamide in sterile deionised water (SDW); 0.01% sulfanilamide in SDW; 100 ppm hypochlorous acid in SDW; and a SDW control.

[2] = system: Escherichia coli NCIMB 14067; experiment: as above
Description: as §1, §2, §3, §4

E. faecalis = experiment: Rate of kill assessment, direct repeat inoculation of medium containing catheter; details: for Reduction in microbial colony forming unit (CFU) counts: reinoculation at 24 hours; for Time up to which rapid kill within 5 seconds following inoculation was observed: repeat inoculation, sample taken 5 seconds after each inoculation
Description: (§5) To assess the sterilisation potential of the medium comprising chlorine-containing species, a microbiology assessment was conducted which consisted of rate of kill assessments against repeat inoculation of E. coli and E. faecalis. These organisms were selected as they are commonly identified in catheter associated urinary tract infections. The selection also covers both gram-positive and gram-negative species to test the broad spectrum antimicrobial performance of the medium.
(§6) Intermittent urinary catheters, as used for Example 1, were provided and submerged in an aqueous medium comprising sodium hypochlorite and sodium chloride. The media comprising the catheters were respectively inoculated with the two microorganisms.
(§7) A direct inoculation method was applied against each microorganism. The test organisms were reinoculated following 1, 2, 3, 4, 5, 6, and 24 hours. Following each inoculation, a sample was taken after 5 seconds, 1, 5, 10 and 15 minutes to evaluate the rate of kill.
(§8) A microbiology assessment was performed using a medium of the invention comprising hypochlorous acid in an analogous manner to that performed for Example 2. However, for this test, following each inoculation, a sample was only taken after 5 seconds to evaluate the rate of kill. Further, in addition to the previous microorganisms tested, a further gram-positive organism, S. aureus, was tested.
(§9) A microbiology assessment was performed using a medium comprising chlorine dioxide in an analogous manner to that performed for Example 5.
(§10) A microbiology assessment was performed using the media comprising hypochlorous acid in an analogous manner to that performed for Example 2. However, for this test, following each inoculation, samples were taken after 5 seconds, 30 seconds, 1, 2, and 5 minutes to evaluate the rate of kill.

E. coli = experiment: as above; details: sample taken 5 seconds after each inoculation
Description: as §5, §6, §7, §8, §9, §10

S. aureus = experiment: as above; details: sample taken 5 seconds after each inoculation
Description: as §8, §9

E. coli NCIMB 14067 = experiment: Antimicrobial efficacy at very low concentrations, suspension test with total viable counts
Description: The antimicrobial efficacy of hypochlorous acid was tested at even lower concentrations (10, 25, and 50 ppm) against the challenging organism E. coli NCIMB 14067.
The representative colonies of E. coli NCIMB 14067 were dispersed in maximum recovery diluent (MRD) to obtain an optical density (OD540nm) equivalent to approximately 1×10^6 CFU/mL. A quantitative plate count was performed on this suspension to determine the total number of viable organisms inoculated. A new suspension was prepared for each concentration tested.
A 1000 ppm hypochlorous acid solution was diluted in sterile deionised water to provide the respective 10, 25 and 50 ppm hypochlorous acid solutions.
The hypochlorous acid samples were aliquoted into 9 mL volumes and 1 mL of the challenge organism suspension was added and mixed (the final number of bacteria present is now approximately 1×10^5 CFU/mL). Following 5, 30 seconds, 1, 2, and 5 minutes, 100 μL volumes were sampled and transferred to 0.9 mL and 9.9 mL of Dey-Engley Neutralising Broth (DENB) (to provide a 1:10 and 1:100 dilution respectively), and total viable counts were performed to establish the amount present. The plates were left to dry before being inverted and incubated at 35±3° C. for at least 48 hours. A negative control was also tested whereby 1 mL of the challenge organism suspension was added to 9 mL of MRD and tested as previously described. Following the incubation period, the number of CFUs were counted on the most appropriate dilution for each sample i.e. between 25-250 CFU/plate.

[3] = both concentrations tested (0.1% and 0.01% in SDW), any timepoint, 5 seconds to 5 minutes
[4] = 100 ppm in SDW, within 5 seconds and for the remaining testing period

Structure (SMILES)	Decrease in challenge organism numbers compared to the control [1, 3]	Decrease in challenge organism numbers compared to the control [2, 3]	Reduction in microbial colony forming unit (CFU) counts (E. faecalis; after around 30 seconds of inoculation)	Time up to which rapid kill within 5 seconds following inoculation was observed (E. faecalis)	Time up to which rapid kill within 5 seconds following inoculation was observed (E. coli)	Time up to which rapid kill within 5 seconds following inoculation was observed (S. aureus)	Bacterial level at the 1 minute timepoint (E. coli NCIMB 14067; 10 ppm, about 1×10^5 CFU/mL inoculum)	Numbers of bacteria after 30 seconds (E. coli NCIMB 14067; 25 ppm, about 1×10^5 CFU/mL inoculum)	Numbers of bacteria after 30 seconds (E. coli NCIMB 14067; 50 ppm, about 1×10^5 CFU/mL inoculum)	CFU/mL of negative control (MRD) larger than for the samples (E. coli NCIMB 14067; all concentrations (10, 25, 50 ppm) and time points tested)	Numbers of challenge organism [1, 4]	Numbers of challenge organism [2, 4]	Reduction in microbial colony forming unit (CFU) counts (E. faecalis; after 5 minutes of inoculation)
Nc1ccc(S(N)(=O)=O)cc1 [sulfanilamide, reference compound]	no decrease	no decrease											
[O][Cl+][O-] [chlorine dioxide]			4 orders of magnitude	up to 6 hours	up to 24 hours	up to 6 hours							
OCl [hypochlorous acid]				up to 6 hours	up to 24 hours	up to 6 hours	undetectable	undetectable	undetectable	over 4 orders of magnitude	undetectable	undetectable	over 3 orders of magnitude
